From PubChem BioAssay AID330 (DTP/NCI, 2004)
Values joined by “and” are separate entries in the source; they are usually repeats but may differ in a detail not shown here. Identical values can stand only once. Toxic doses and inconclusive results are not listed. The calls were made as follows: active = survival T/C of 150% or more; inactive = T/C below 125% in these data.

System: P388 leukemia ip, CD2F1 mice, survival T/C
Test: NCI In Vivo Anticancer Drug Screen. Data for tumor model P388 Leukemia (intraperitoneal) in CD2F1 (CDF1) mice
Details: endpoint: median survival time, higher = longer survival
Procedure, shortened: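 Mice carrying the transplanted tumor received test compound or vehicle. Survival was recorded in each group, and the value is the treated-group measurement divided by that of the vehicle-treated control group.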

[1] = dose: 60.0 mg/kg/injection, schedule: Q01DX005 (ip), vehicle: saline with Tween-80
[2] = dose: 240.0 mg/kg/injection, schedule: Q01DX005 (ip), vehicle: saline with Tween-80
[3] = dose: 50.0 mg/kg/injection, schedule: Q01DX005 (ip), vehicle: Klucel (hydroxypropylcellulose) (HPC)
[4] = dose: 100.0 mg/kg/injection, schedule: Q01DX005 (ip), vehicle: Klucel (hydroxypropylcellulose) (HPC)
[5] = dose: 200.0 mg/kg/injection, schedule: Q01DX005 (ip), vehicle: Klucel (hydroxypropylcellulose) (HPC)
[6] = dose: 50.0 mg/kg/injection, schedule: Q01DX005 (ip), vehicle: saline with Tween-80
[7] = dose: 100.0 mg/kg/injection, schedule: Q01DX005 (ip), vehicle: saline with Tween-80
[8] = dose: 200.0 mg/kg/injection, schedule: Q01DX005 (ip), vehicle: saline with Tween-80
[9] = dose: 50.0 mg/kg/injection, schedule: Q01DX001 (ip), vehicle: Klucel (hydroxypropylcellulose) (HPC)
[10] = dose: 50.0 mg/kg/injection, schedule: Q01DX009 (ip), vehicle: saline with Tween-80
[11] = dose: 100.0 mg/kg/injection, schedule: Q01DX009 (ip), vehicle: saline with Tween-80
[12] = dose: 100.0 mg/kg/injection, schedule: Q01DX009 (ip), vehicle: Klucel (hydroxypropylcellulose) (HPC)
[13] = dose: 200.0 mg/kg/injection, schedule: Q01DX009 (ip), vehicle: Klucel (hydroxypropylcellulose) (HPC)
[14] = dose: 120.0 mg/kg/injection, schedule: Q01DX005 (ip), vehicle: saline with Tween-80
[15] = dose: 50.0 mg/kg/injection, schedule: Q01DX009 (ip), vehicle: saline
[16] = dose: 100.0 mg/kg/injection, schedule: Q01DX009 (ip), vehicle: saline
[17] = dose: 200.0 mg/kg/injection, schedule: Q01DX009 (ip), vehicle: saline
[18] = dose: 50.0 mg/kg/injection, schedule: Q01DX009 (ip), vehicle: Klucel (hydroxypropylcellulose) (HPC)
[19] = dose: 100.0 mg/kg/injection, schedule: Q04DX003 (ip), vehicle: saline
[20] = dose: 200.0 mg/kg/injection, schedule: Q04DX003 (ip), vehicle: saline

Measured: T/C

CCOc1cc2c(cc1Cc1c(OC)cc(OC)cc1OC)OCO2
inactive: [1] 90 % of control | [2] 99 % of control

CC(=O)n1oc2ccc(Br)cc2c1=O
inactive: [3] 100 % of control | [4] 95 % of control | [5] 100 % of control

COC(=O)C(C)NC(=O)C(C)NC(=O)C(C)NC(C)=O (centres undefined)
inactive: [3] 102 % of control | [4] 94 % of control | [5] 100 % of control

CCCNC(=O)Nc1cc(Cl)ccc1OC
inactive: dose: 132.0 mg/kg/injection, schedule: Q04DX003 (ip), vehicle: saline with Tween-80 100 % of control | dose: 200.0 mg/kg/injection, schedule: Q04DX003 (ip), vehicle: saline with Tween-80 100 % of control | dose: 300.0 mg/kg/injection, schedule: Q04DX003 (ip), vehicle: saline with Tween-80 100 % of control

CC(C)(C=C(c1ccccc1)c1ccccc1)C=C(c1ccccc1)c1ccccc1
inactive: [6] 95 % of control | [7] 98 % of control | [8] 95 % of control

COC(=O)CC1(C(=O)OC)C2=C(C(C(=O)C(F)F)CC2)N2CCCC21 (centres undefined)
inactive: dose: 12.5 mg/kg/injection, schedule: Q01DX001 (ip), vehicle: Klucel (hydroxypropylcellulose) (HPC) 94 % of control | dose: 25.0 mg/kg/injection, schedule: Q01DX001 (ip), vehicle: Klucel (hydroxypropylcellulose) (HPC) 97 % of control | [9] 100 % of control

O=NN(C(=O)NCc1cccnc1)C1CCCCC1
inactive: dose: 25.0 mg/kg/injection, schedule: Q01DX001 (ip), vehicle: distilled water + Tween-80 115 % of control | dose: 50.0 mg/kg/injection, schedule: Q01DX001 (ip), vehicle: distilled water + Tween-80 110 % of control | dose: 100.0 mg/kg/injection, schedule: Q01DX001 (ip), vehicle: distilled water + Tween-80 106 % of control | dose: 200.0 mg/kg/injection, schedule: Q01DX001 (ip), vehicle: distilled water + Tween-80 102 % of control | dose: 400.0 mg/kg/injection, schedule: Q01DX001 (ip), vehicle: distilled water + Tween-80 102 % of control

COCCc1nnnn1C
inactive: [6] 102 % of control | [7] 98 % of control | [8] 114 % of control

COc1ccccc1C(O)(c1ccccc1OC)C1(O)CCN(C)CC1
inactive: [3] 94 % of control | [4] 95 % of control

O=C1CSC(c2c(O)ccc3ccccc23)N1CCN1C(=O)CSC1c1c(O)ccc2ccccc12 (centres undefined)
inactive: dose: 100.0 mg/kg/injection, schedule: Q01DX001 (ip), vehicle: saline with Tween-80 97 % of control | dose: 200.0 mg/kg/injection, schedule: Q01DX001 (ip), vehicle: saline with Tween-80 92 % of control | dose: 400.0 mg/kg/injection, schedule: Q01DX001 (ip), vehicle: saline with Tween-80 90 % of control

Cc1c(C)c2c(c(C)c1OP(=O)(N1CC1)N1CC1)CCC(C)(CCCC(C)CCCC(C)CCCC(C)C)O2 (centres undefined)
inactive: [10] 105 % of control | [11] 105 % of control | dose: 200.0 mg/kg/injection, schedule: Q01DX009 (ip), vehicle: saline with Tween-80 102 % of control

Clc1ccc(-n2nnc3cc(Cl)ccc32)c(Cl)c1
inactive: dose: 6.25 mg/kg/injection, schedule: Q01DX005 (ip), vehicle: saline with Tween-80 86 % of control and 96 % of control | dose: 12.5 mg/kg/injection, schedule: Q01DX005 (ip), vehicle: saline with Tween-80 94 % of control | dose: 25.0 mg/kg/injection, schedule: Q01DX005 (ip), vehicle: saline with Tween-80 90 % of control and 91 % of control | dose: 25.0 mg/kg/injection, schedule: Q01DX009 (ip), vehicle: saline with Tween-80 103 % of control | [10] 97 % of control | [11] 101 % of control

O=C1OCC2C1Cc1cc(O)c(O)cc1C2c1ccc(O)c(O)c1 (centres undefined)
inactive: [12] 94 % of control | [13] 92 % of control | dose: 400.0 mg/kg/injection, schedule: Q01DX009 (ip), vehicle: Klucel (hydroxypropylcellulose) (HPC) 111 % of control

[NH-]C(Cc1cnc[n-]1)C(=O)O.[NH-]C(Cc1cnc[n-]1)C(=O)O.[O]=[Mo]1[O][Mo](=[O])[O]1 (centres undefined)
inactive: dose: 50.0 mg/kg/injection, schedule: Q01DX009 (ip), vehicle: suspension in saline 99 % of control | dose: 100.0 mg/kg/injection, schedule: Q01DX009 (ip), vehicle: suspension in saline 99 % of control | dose: 200.0 mg/kg/injection, schedule: Q01DX009 (ip), vehicle: suspension in saline 99 % of control

Cc1nn(C23CC4CC(CC(C4)C2)C3)c(C(Cl)Cl)c1Cl
inactive: [1] 100 % of control | [14] 94 % of control | [2] 94 % of control

CC(C)CCC(NS(=O)(=O)c1cc(I)c(N)c(I)c1)C(=O)O (centres undefined)
inactive: [6] 99 % of control | [7] 96 % of control | [8] 103 % of control

COc1c2c(c(OC)c3c1C(=O)c1ccccc1C3=O)C(=O)CCC2
inactive: dose: 30.0 mg/kg/injection, schedule: Q01DX005 (ip), vehicle: saline with Tween-80 93 % of control | [1] 91 % of control | [14] 87 % of control | [2] 88 % of control

CC(C)(C)OP(=O)(NN)OC(C)(C)C
inactive: [15] 101 % of control | [16] 108 % of control | [17] 99 % of control

C=CCN(C#N)CC=C
inactive: [15] 96 % of control

C=Cc1ccccc1 (tested in a mixture with another compound)
inactive: dose: 12.5 mg/kg/injection, schedule: Q01DX005 (ip), vehicle: saline 98 % of control | dose: 25.0 mg/kg/injection, schedule: Q01DX005 (ip), vehicle: saline 99 % of control

COc1ccc(Cc2cc3c(cc2OCC(=O)N2CCOCC2)OCO3)cc1
inactive: [3] 97 % of control | [4] 89 % of control | [5] 97 % of control

CCOc1ccc(N=Nc2c(O)n(-c3ccccc3Cl)c(=S)n(-c3ccc(OC)cc3)c2=O)cc1
inactive: [9] 97 % of control | dose: 100.0 mg/kg/injection, schedule: Q01DX001 (ip), vehicle: Klucel (hydroxypropylcellulose) (HPC) 102 % of control | dose: 200.0 mg/kg/injection, schedule: Q01DX001 (ip), vehicle: Klucel (hydroxypropylcellulose) (HPC) 97 % of control

O=C(CCl)NC(Cc1cccc(F)c1)C(=O)O (centres undefined)
inactive: dose: 1.56 mg/kg/injection, schedule: Q01DX009 (ip), vehicle: saline 97 % of control | dose: 3.12 mg/kg/injection, schedule: Q01DX009 (ip), vehicle: saline 97 % of control | dose: 6.25 mg/kg/injection, schedule: Q01DX009 (ip), vehicle: saline 100 % of control and 96 % of control

O=C1C(c2ccccc2)=C(c2ccccc2)C2(c3ccccc3)C=NNC12c1ccccc1 (centres undefined)
inactive: dose: 6.25 mg/kg/injection, schedule: Q01DX005 (ip), vehicle: Klucel (hydroxypropylcellulose) (HPC) 95 % of control | dose: 12.5 mg/kg/injection, schedule: Q01DX005 (ip), vehicle: Klucel (hydroxypropylcellulose) (HPC) 92 % of control

CCNc1ccc2c(c1)C(=O)N(OS(C)(=O)=O)C2=O
inactive: [6] 97 % of control | [7] 92 % of control

O=C(Nc1ccc(Cl)c([N+](=O)[O-])c1)Nc1nc2ccccc2s1
inactive: [3] 98 % of control | [4] 86 % of control | [5] 87 % of control

CC1CCC2(C(=O)O)CCC3(C)C(=CCC4C5(C)CCC(O)C(C)(C)C5CCC43C)C2C1C (centres undefined)
inactive: dose: 22.0 mg/kg/injection, schedule: Q01DX010 (ip), vehicle: acetone 108 % of control | dose: 35.0 mg/kg/injection, schedule: Q01DX010 (ip), vehicle: acetone 95 % of control

COc1ccc2c(c1)CCC1=C2P(C)(=S)CC1 (centres undefined)
inactive: [18] 101 % of control | [12] 104 % of control | [13] 106 % of control

NCc1ccc(O)c(O)c1O
inactive: [15] 121 % of control and 123 % of control | [16] 118 % of control and 120 % of control | [17] 124 % of control and 88 % of control

C=C(C(=O)O)C(=O)O
inactive: [15] 105 % of control | dose: 50.0 mg/kg/injection, schedule: Q04DX003 (ip), vehicle: saline 115 % of control | [16] 110 % of control | [19] 105 % of control | [20] 115 % of control

COSc1cccc(C(F)(F)F)c1
inactive: [19] 100 % of control | [20] 100 % of control | dose: 400.0 mg/kg/injection, schedule: Q04DX003 (ip), vehicle: saline 97 % of control

CCCCCCCC#CC1(C(O)CC)Sc2ccccc2N1C (centres undefined)
inactive: [1] 107 % of control | [14] 101 % of control | [2] 105 % of control

N#CC1CCCC(CCc2ccccc2)(c2ccccc2)C1=O (centres undefined)
inactive: [18] 101 % of control | [12] 104 % of control | [13] 98 % of control
